Key:
Format in all cases: cell-based
human TLR7 = target: T1, human TLR7 (Homo sapiens, UniProt Q9NYK1); test: TLR7 inhibition reporter assay (HEK-Blue SEAP reporter); conditions: HEK-Blue cells overexpressing human TLR7; gardiquimod 7.5 μM; 22 hour incubation
T1 construct: host or cells: HEK-Blue cells
T1 sequence (Q9NYK1 27-1049): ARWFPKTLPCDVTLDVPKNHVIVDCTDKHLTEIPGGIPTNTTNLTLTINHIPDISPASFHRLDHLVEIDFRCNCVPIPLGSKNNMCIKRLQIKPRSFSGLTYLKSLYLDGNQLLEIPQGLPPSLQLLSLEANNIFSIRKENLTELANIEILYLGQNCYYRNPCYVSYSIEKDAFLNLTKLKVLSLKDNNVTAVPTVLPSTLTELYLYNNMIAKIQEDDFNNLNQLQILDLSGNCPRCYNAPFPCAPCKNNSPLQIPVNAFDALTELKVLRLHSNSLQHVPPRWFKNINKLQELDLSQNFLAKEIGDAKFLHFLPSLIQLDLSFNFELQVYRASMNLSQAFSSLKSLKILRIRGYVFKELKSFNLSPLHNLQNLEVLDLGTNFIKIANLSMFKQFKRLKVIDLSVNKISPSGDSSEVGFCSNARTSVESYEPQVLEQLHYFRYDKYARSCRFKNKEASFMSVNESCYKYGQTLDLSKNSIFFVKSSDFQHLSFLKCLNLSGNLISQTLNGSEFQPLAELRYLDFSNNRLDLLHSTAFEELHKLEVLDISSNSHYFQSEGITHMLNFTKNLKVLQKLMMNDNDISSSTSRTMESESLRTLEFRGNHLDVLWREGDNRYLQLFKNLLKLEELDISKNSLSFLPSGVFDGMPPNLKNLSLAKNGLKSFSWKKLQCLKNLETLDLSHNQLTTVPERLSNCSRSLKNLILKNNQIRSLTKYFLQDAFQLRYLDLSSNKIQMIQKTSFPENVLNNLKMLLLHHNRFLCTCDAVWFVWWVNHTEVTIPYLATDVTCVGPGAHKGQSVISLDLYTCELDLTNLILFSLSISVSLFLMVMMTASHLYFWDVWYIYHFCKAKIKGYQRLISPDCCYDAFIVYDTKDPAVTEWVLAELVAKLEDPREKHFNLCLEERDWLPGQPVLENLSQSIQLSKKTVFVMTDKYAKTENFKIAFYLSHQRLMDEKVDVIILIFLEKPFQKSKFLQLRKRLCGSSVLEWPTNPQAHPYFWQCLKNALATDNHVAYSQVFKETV
How it was run: (§1)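 Compound treatment: 30 min, RT, 0.05 nM–50 μM final. Agonist: TLR7 gardiquimod 7.5 μM; TLR8 R848 15.9 μM; TLR9 ODN2006 5 nM. Incubation 22 h, 37 °C, 5% CO2. Readout SEAP, HEK-Blue Detection.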

human TLR8 = target: T2, human TLR8 (Homo sapiens, UniProt Q9NR97); test: TLR8 inhibition reporter assay (HEK-Blue SEAP reporter); conditions: HEK-Blue cells overexpressing human TLR8; R848 15.9 μM; 22 hour incubation
T2 construct: host or cells: HEK-Blue cells
T2 sequence (Q9NR97 27-1041): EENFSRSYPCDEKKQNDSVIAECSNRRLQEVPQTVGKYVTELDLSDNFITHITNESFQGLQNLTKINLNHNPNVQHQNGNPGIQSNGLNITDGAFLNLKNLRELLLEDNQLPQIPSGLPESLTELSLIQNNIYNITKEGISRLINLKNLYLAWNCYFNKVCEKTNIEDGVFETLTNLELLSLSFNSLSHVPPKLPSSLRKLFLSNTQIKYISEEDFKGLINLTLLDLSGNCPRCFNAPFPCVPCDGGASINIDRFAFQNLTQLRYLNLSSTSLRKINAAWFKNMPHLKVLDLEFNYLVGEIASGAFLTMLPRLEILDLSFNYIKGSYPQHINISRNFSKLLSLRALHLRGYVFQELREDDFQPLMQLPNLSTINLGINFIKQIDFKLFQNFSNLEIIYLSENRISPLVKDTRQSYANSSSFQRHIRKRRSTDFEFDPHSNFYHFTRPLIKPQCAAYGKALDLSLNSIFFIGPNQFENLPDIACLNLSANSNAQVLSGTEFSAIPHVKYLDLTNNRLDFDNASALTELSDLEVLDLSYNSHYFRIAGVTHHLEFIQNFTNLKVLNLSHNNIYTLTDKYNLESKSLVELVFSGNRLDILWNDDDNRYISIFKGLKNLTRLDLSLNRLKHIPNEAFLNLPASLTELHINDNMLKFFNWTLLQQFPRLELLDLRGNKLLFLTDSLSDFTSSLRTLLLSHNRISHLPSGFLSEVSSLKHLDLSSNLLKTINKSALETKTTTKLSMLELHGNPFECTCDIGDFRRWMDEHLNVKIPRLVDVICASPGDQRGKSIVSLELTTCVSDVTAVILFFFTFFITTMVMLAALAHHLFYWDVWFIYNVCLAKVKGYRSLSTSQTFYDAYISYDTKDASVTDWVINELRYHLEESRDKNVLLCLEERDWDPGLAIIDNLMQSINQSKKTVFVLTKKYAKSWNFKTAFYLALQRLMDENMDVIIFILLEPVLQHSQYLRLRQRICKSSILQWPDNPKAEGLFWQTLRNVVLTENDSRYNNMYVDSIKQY
How it was run: as §1

human TLR9 = target: T3, human TLR9 (Homo sapiens, UniProt Q9NR96); test: TLR9 inhibition reporter assay (HEK-Blue SEAP reporter); conditions: HEK-Blue cells overexpressing human TLR9; ODN2006 5 nM; 22 hour incubation
T3 construct: host or cells: HEK-Blue cells
T3 sequence (Q9NR96 26-1032): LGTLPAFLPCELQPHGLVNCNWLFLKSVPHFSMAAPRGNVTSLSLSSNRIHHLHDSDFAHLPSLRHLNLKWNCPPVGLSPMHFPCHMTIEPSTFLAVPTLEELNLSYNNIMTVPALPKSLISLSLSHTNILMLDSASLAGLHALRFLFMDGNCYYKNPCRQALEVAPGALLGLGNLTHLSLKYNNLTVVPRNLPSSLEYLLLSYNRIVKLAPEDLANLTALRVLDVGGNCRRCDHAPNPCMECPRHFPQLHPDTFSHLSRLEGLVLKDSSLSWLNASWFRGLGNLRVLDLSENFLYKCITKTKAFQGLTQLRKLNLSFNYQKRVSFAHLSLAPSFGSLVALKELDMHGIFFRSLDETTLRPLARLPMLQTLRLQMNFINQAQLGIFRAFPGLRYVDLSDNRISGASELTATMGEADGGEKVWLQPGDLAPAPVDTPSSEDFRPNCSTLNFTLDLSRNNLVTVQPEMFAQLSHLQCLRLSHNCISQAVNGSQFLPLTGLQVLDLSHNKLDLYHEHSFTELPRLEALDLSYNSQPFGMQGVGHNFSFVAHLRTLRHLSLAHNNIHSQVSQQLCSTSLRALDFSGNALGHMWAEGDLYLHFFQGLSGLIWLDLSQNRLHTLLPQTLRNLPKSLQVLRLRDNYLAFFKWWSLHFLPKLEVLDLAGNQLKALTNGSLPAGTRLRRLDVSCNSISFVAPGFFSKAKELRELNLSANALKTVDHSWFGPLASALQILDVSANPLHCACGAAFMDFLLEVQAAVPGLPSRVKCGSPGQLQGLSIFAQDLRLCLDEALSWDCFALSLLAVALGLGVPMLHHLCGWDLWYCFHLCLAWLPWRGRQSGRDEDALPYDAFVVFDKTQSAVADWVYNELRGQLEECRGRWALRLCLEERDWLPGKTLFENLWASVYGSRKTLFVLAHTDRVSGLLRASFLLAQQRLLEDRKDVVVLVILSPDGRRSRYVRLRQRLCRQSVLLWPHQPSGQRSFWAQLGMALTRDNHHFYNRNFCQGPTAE
How it was run: as §1

**Q.** What does the source list for `CCc1c(-c2ccc(OC)c(OC)c2)[nH]c2ccc(N3CCN(C4CCN(CC(C)C)CC4)CC3)cc12` [Example 177, 2-(3,4-dimethoxyphenyl)-3-ethyl-5-(4-(1-isobutylpiperidin-4-yl)piperazin-1-yl)-1H-indole]?
**A.** IC50 (human TLR7): 166 nM; IC50 (human TLR8): 11 nM; IC50 (human TLR9): 1540 nM

**Q.** Which IC50 (human TLR7) does the source give for `CCc1c(-c2ccc(OC)c(OC)c2)[nH]c2ccc(N3CCC4(CCN(C)CC4)CC3)cc12` [Example 181, 3-(2-(3,4-dimethoxyphenyl)-3-ethyl-1H-indol-5-yl)-9-methyl-3,9-diazaspiro[5.5]undecane] here?
**A.** 54 nM

**Q.** And the IC50 (human TLR8)?
**A.** 74 nM

**Q.** What about the IC50 (human TLR9) of the same compound?
**A.** 517 nM

**Q.** For `CCc1c(-c2ccc(OC)c(OC)c2)[nH]c2ccc(N3CCC4(CC3)CCN(C(C)C)CC4)cc12` [Example 183, 3-(2-(3,4-dimethoxyphenyl)-3-ethyl-1H-indol-5-yl)-9-isopropyl-3,9-diazaspiro[5.5]undecane], which IC50 (human TLR7) is on record?
**A.** 95 nM

**Q.** And the IC50 (human TLR8)?
**A.** 59 nM

**Q.** What about the IC50 (human TLR9) of the same compound?
**A.** 672 nM

**Q.** How did the IC50 (human TLR7) turn out when `CCc1c(-c2ccnc3[nH]ncc23)[nH]c2ccc(N3CCC(OC4CCN(C(C)C)CC4)CC3)cc12` [Example 185, 4-(3-ethyl-5-(4-((1-isopropylpiperidin-4-yl)oxy)piperidin-1-yl)-1H-indol-2-yl)-1H-pyrazolo[3,4-b]pyridine] was run?
**A.** 15000 nM

**Q.** And the IC50 (human TLR8)?
**A.** 18600 nM

**Q.** And the IC50 (human TLR9)?
**A.** 1410 nM

**Q.** With `CCc1c(-c2ccc(OC)c(OC)c2)[nH]c2cc(C)c(N3CCC4(CC3)CCN(C(C)C)CC4)cc12` [Example 186, 3-(2-(3,4-dimethoxyphenyl)-3-ethyl-6-methyl-1H-indol-5-yl)-9-isopropyl-3,9-diazaspiro[5.5]undecane] as the compound, how does the IC50 (human TLR7) read?
**A.** 1210 nM

**Q.** And the IC50 (human TLR8)?
**A.** 1590 nM

**Q.** And the IC50 (human TLR9)?
**A.** 2850 nM

**Q.** `COc1ccc(-c2[nH]c3ccc(N4CCC(OC5CCN(C)CC5)CC4)cc3c2C(C)C)cc1OC` [Example 187, 2-(3,4-dimethoxyphenyl)-3-isopropyl-5-(4-((1-methylpiperidin-4-yl)oxy)piperidin-1-yl)-1H-indole] was tested. Which IC50 (human TLR7) did it give?
**A.** 83 nM

**Q.** And the IC50 (human TLR8)?
**A.** 167 nM

**Q.** And the IC50 (human TLR9)?
**A.** 1450 nM

**Q.** Which results are given for `CCN1CCC(OC2CCN(c3ccc4[nH]c(-c5ccc(OC)c(OC)c5)c(C(C)C)c4c3)CC2)CC1` [Example 190, 2-(3,4-dimethoxyphenyl)-5-(4-((1-ethylpiperidin-4-yl)oxy)piperidin-1-yl)-3-isopropyl-1H-indole]?
**A.** IC50 (human TLR7): 33 nM; IC50 (human TLR8): 35 nM; IC50 (human TLR9): 667 nM

**Q.** For `CCc1c(-c2ccc(OC)c(OC)c2)[nH]c2ccc(N3CCC(OC4CCN(C(C)C)CC4)CC3)cc12` [Example 191, 2-(3,4-dimethoxyphenyl)-3-ethyl-5-(4-((1-isopropylpiperidin-4-yl)oxy)piperidin-1-yl)-1H-indole], which IC50 (human TLR7) is on record?
**A.** 87 nM

**Q.** What about the IC50 (human TLR8) of the same compound?
**A.** 66 nM

**Q.** And the IC50 (human TLR9)?
**A.** 836 nM

**Q.** Which results are given for `COc1ccc(-c2[nH]c3ccc(N4CCC(NC5CCN(C(C)C)CC5)CC4)cc3c2C(C)C)cc1OC` [Example 192, 1-(2-(3,4-dimethoxyphenyl)-3-isopropyl-1H-indol-5-yl)-N-(1-isopropylpiperidin-4-yl)piperidin-4-amine]?
**A.** IC50 (human TLR7): 36 nM; IC50 (human TLR8): 7.7 nM; IC50 (human TLR9): 322 nM
